Assay results reported in the NIST ThermoML archive (doi:10.1021/acs.jced.7b00176).

Assay: xn = mol fraction of the nth substance listed
Conditions: Liquid, Vibrating tube method

COCCOCCOC [2,5,8-trioxanonane] + CCCCO
Conditions | mass density [kg/m3]
283.55 K, 100000 kPa, x2 = 0.5469 | 947.45
283.56 K, 40000 kPa, x2 = 0.5469 | 918.49
283.56 K, 60000 kPa, x2 = 0.5469 | 928.98
283.56 K, 80000 kPa, x2 = 0.5469 | 938.59
283.58 K, 5000 kPa, x2 = 0.5469 | 897.03
283.58 K, 10000 kPa, x2 = 0.5469 | 900.4
283.58 K, 20000 kPa, x2 = 0.5469 | 906.81
283.58 K, 30000 kPa, x2 = 0.5469 | 912.81
283.59 K, 100 kPa, x2 = 0.5469 | 893.58
283.59 K, 1000 kPa, x2 = 0.5469 | 894.22
283.62 K, 100 kPa, x2 = 0.7308 | 866.59
283.62 K, 1000 kPa, x2 = 0.7308 | 867.24
283.62 K, 5000 kPa, x2 = 0.7308 | 870.06
283.62 K, 10000 kPa, x2 = 0.7308 | 873.45
283.62 K, 20000 kPa, x2 = 0.7308 | 879.83
283.62 K, 30000 kPa, x2 = 0.7308 | 885.83
283.62 K, 40000 kPa, x2 = 0.7308 | 891.47
283.62 K, 60000 kPa, x2 = 0.7308 | 901.94
283.62 K, 80000 kPa, x2 = 0.7308 | 911.46
283.62 K, 100000 kPa, x2 = 0.7308 | 920.22
283.65 K, 100 kPa, x2 = 0.3116 | 922.56
283.65 K, 5000 kPa, x2 = 0.3116 | 926
283.65 K, 20000 kPa, x2 = 0.3116 | 935.72
283.65 K, 30000 kPa, x2 = 0.3116 | 941.81
283.65 K, 40000 kPa, x2 = 0.3116 | 947.48
283.65 K, 60000 kPa, x2 = 0.3116 | 958.06
283.65 K, 80000 kPa, x2 = 0.3116 | 967.62
283.65 K, 100000 kPa, x2 = 0.3116 | 976.51
283.66 K, 1000 kPa, x2 = 0.3116 | 923.21
283.66 K, 10000 kPa, x2 = 0.3116 | 929.34
283.66 K, 20000 kPa, x2 = 0.8787 | 855.19
283.66 K, 30000 kPa, x2 = 0.8787 | 861.18
283.66 K, 40000 kPa, x2 = 0.8787 | 866.81
283.66 K, 60000 kPa, x2 = 0.8787 | 877.23
283.66 K, 80000 kPa, x2 = 0.8787 | 886.62
283.66 K, 100000 kPa, x2 = 0.8787 | 895.34
283.67 K, 100 kPa, x2 = 0.8787 | 841.93
283.67 K, 1000 kPa, x2 = 0.8787 | 842.59
283.67 K, 5000 kPa, x2 = 0.8787 | 845.4
283.67 K, 10000 kPa, x2 = 0.8787 | 848.78
283.67 K, 40000 kPa, x2 = 0 | 978.49
283.67 K, 60000 kPa, x2 = 0 | 989.12
283.67 K, 80000 kPa, x2 = 0 | 998.75
283.67 K, 100000 kPa, x2 = 0 | 1007.71
283.68 K, 10000 kPa, x2 = 0 | 960.29
283.68 K, 20000 kPa, x2 = 0 | 966.68
283.68 K, 30000 kPa, x2 = 0 | 972.8
283.69 K, 100 kPa, x2 = 0 | 953.48
283.69 K, 1000 kPa, x2 = 0 | 954.15
283.69 K, 5000 kPa, x2 = 0 | 956.94
303.46 K, 80000 kPa, x2 = 0.8787 | 874
303.46 K, 100000 kPa, x2 = 0.8787 | 883.23
303.47 K, 100 kPa, x2 = 0 | 933.69
303.47 K, 1000 kPa, x2 = 0 | 934.43
303.47 K, 30000 kPa, x2 = 0.8787 | 846.7
303.47 K, 60000 kPa, x2 = 0.8787 | 863.93
303.48 K, 5000 kPa, x2 = 0 | 937.55
303.48 K, 10000 kPa, x2 = 0 | 941.31
303.48 K, 10000 kPa, x2 = 0.8787 | 833.12
303.48 K, 20000 kPa, x2 = 0.8787 | 840.14
303.48 K, 40000 kPa, x2 = 0.8787 | 852.78
303.49 K, 100 kPa, x2 = 0.8787 | 825.51
303.49 K, 5000 kPa, x2 = 0.8787 | 829.38
303.49 K, 20000 kPa, x2 = 0 | 948.42
303.49 K, 30000 kPa, x2 = 0 | 955.17
303.49 K, 40000 kPa, x2 = 0 | 961.41
303.49 K, 60000 kPa, x2 = 0 | 973.02
303.5 K, 1000 kPa, x2 = 0.7308 | 850.15
303.5 K, 1000 kPa, x2 = 0.8787 | 826.23
303.5 K, 5000 kPa, x2 = 0.7308 | 853.29
303.5 K, 10000 kPa, x2 = 0.7308 | 857.01
303.5 K, 20000 kPa, x2 = 0.7308 | 864.06
303.5 K, 30000 kPa, x2 = 0.7308 | 870.65
303.5 K, 40000 kPa, x2 = 0.5469 | 902.93
303.5 K, 40000 kPa, x2 = 0.7308 | 876.8
303.5 K, 60000 kPa, x2 = 0.5469 | 914.29
303.5 K, 60000 kPa, x2 = 0.7308 | 888.07
303.5 K, 79990 kPa, x2 = 0.7308 | 898.18
303.5 K, 80000 kPa, x2 = 0 | 983.33
303.5 K, 80000 kPa, x2 = 0.5469 | 924.52
303.5 K, 100000 kPa, x2 = 0 | 992.97
303.5 K, 100000 kPa, x2 = 0.5469 | 933.93
303.5 K, 100000 kPa, x2 = 0.7308 | 907.47
303.51 K, 100 kPa, x2 = 0.5469 | 875.36
303.51 K, 100 kPa, x2 = 0.7308 | 849.42
303.51 K, 1000 kPa, x2 = 0.5469 | 876.1
303.51 K, 10000 kPa, x2 = 0.5469 | 883.02
303.51 K, 20000 kPa, x2 = 0.5469 | 890.1
303.51 K, 30000 kPa, x2 = 0.5469 | 896.73
303.52 K, 5000 kPa, x2 = 0.5469 | 879.25
303.55 K, 100000 kPa, x2 = 0.3116 | 962.26
303.56 K, 10000 kPa, x2 = 0.3116 | 911.05
303.56 K, 20000 kPa, x2 = 0.3116 | 918.17
303.56 K, 30000 kPa, x2 = 0.3116 | 924.8
303.56 K, 40000 kPa, x2 = 0.3116 | 931.1
303.56 K, 60000 kPa, x2 = 0.3116 | 942.54
303.56 K, 80000 kPa, x2 = 0.3116 | 952.82
303.57 K, 100 kPa, x2 = 0.3116 | 903.4
303.57 K, 1000 kPa, x2 = 0.3116 | 904.14
303.57 K, 5000 kPa, x2 = 0.3116 | 907.29
322.62 K, 100 kPa, x2 = 0 | 914.41
322.62 K, 1000 kPa, x2 = 0 | 915.3
322.62 K, 5000 kPa, x2 = 0 | 918.77
322.62 K, 10000 kPa, x2 = 0 | 923.02
322.62 K, 20000 kPa, x2 = 0 | 930.99
322.62 K, 30000 kPa, x2 = 0 | 938.31
322.62 K, 40000 kPa, x2 = 0 | 945.16
322.62 K, 60000 kPa, x2 = 0 | 957.74
322.62 K, 80000 kPa, x2 = 0 | 968.98
322.62 K, 100000 kPa, x2 = 0 | 979.2
323.22 K, 100 kPa, x2 = 0.5469 | 857.29
323.22 K, 1000 kPa, x2 = 0.5469 | 858.13
323.22 K, 5000 kPa, x2 = 0.5469 | 861.6
323.23 K, 10000 kPa, x2 = 0.5469 | 865.79
323.23 K, 20000 kPa, x2 = 0.5469 | 873.63
323.23 K, 30000 kPa, x2 = 0.5469 | 880.92
323.23 K, 40000 kPa, x2 = 0.5469 | 887.67
323.23 K, 60000 kPa, x2 = 0.5469 | 899.96
323.24 K, 80000 kPa, x2 = 0.5469 | 911.05
323.24 K, 100000 kPa, x2 = 0.5469 | 920.96
323.26 K, 100 kPa, x2 = 0.7308 | 831.9
323.26 K, 1000 kPa, x2 = 0.7308 | 832.7
323.26 K, 5000 kPa, x2 = 0.7308 | 836.19
323.26 K, 10000 kPa, x2 = 0.7308 | 840.37
323.26 K, 20000 kPa, x2 = 0.7308 | 848.19
